From patent publication US20190072562A1, “SYSTEM AND METHOD FOR DETERMINATION OF LIGAND-TARGET BINDING BY MULTI-PHOTON FLUORESCENCE ANISOTROPY MICROSCOPY” (THE GENERAL HOSPITAL CORPORATION, priority 2014, published 2019) come the findings set out here.

For experiment [1], the system named is PARP. The experiment is described as follows: In vivo MFAM imaging of drug target engagement in HT1080 tumor, mouse dorsal skinfold window chamber. The method, then: All animal experiments were performed in accordance with the Institutional Animal Care and Use Committee at Massachusetts General Hospital. Female 20-weeks old nude mice (Cox-7, Massachusetts General Hospital) were used. All surgical procedures were conducted under sterile conditions and facilitated through the use of a zoom stereomicroscope (Olympus SZ61). During all surgical procedures and imaging experiments mice were anesthetized by isofluorane vaporization (Harvard Apparatus) at a flow rate of […]: 2 L/minute oxygen. The body temperature of the mice was kept constant at 37° C. during all imaging experiments and surgical procedures. Dorsal skinfold window chambers (DSC) were implanted one day prior to imaging following a well-established protocol. Briefly, the two layers of skin on the back of the mouse were stretched and kept in place by the DSC. One skin layer was surgically removed and replaced by a 12-mm diameter glass cover slip positioned on one side of the DSC allowing for convenient access and imaging of the tumor area. A spacer located on the DSC prevented excessive compression of both tissue and vessel guaranteeing good vascularperfusion within the tumor region.
HT1080 H2B mApple cells were harvested by trypsinization (0.25% trypsin:EDTA) and resuspended in PBS. […]

In experiment [2] the target is T1, PARP (Homo sapiens, UniProt P09874).
T1 construct: endogenous in cells; host or cells: HT1080
The experiment is described as follows: In vitro cellular MFAM imaging of drug target engagement in live cells. The format is cell-based. The method, then: HT1080 cells (ATCC) stably expressing H2B mApple fluorescent protein were cultured in DMEM with 10% FBS, 1% pen-strep and 100 μg/ml geneticin (Invitrogen). HT1080 cells were cultured in DMEM with 10% FBS and 1% pen-strep. […] Cells were plated onto 25 mm #1 cover glass for in vitro imaging.
Cells on 25 mm cover glass were mounted into a closed bath perfusion chamber (Warner Instruments) and perfused with a custom perfusion system that enabled solution switching in the imaging chamber. Cells were imaged in phenol red-free DMEM with 10% FBS and 1% pen-strep. AZD2281-BODIPY FL (1 μM) was perfused into the imaging chamber followed by a washout with drug free media. Images were obtained during the entire time interval at regular time points. For competition experiments, free AZD2281 (5 μM) (Selleck Chemicals) was added to the incubating solution before during and after AZD2281-BODIPY FL addition. Me5-BODIPY was used for fluorophore control experiments.
(§1) Images were analyzed in Matlab (Mathworks) and ImageJ. All anisotropy measurements were calculated from the equation r=(I∥−I⊥)/(I∥+2I⊥). The detector noise of the two photodetectors was subtracted from the whole images before the data were processed. Fluorescence images represent the denominator of the anisotropy equation, which represents the entire fluorescence from the sample. Anisotropy values were obtained by defining a region of interest and measuring the average anisotropy within that region. Regions were extended to fluorescent images to calculate the corresponding intensity. […]

Experiment [3] has as its target T2, PARP1 (Homo sapiens, UniProt P09874). The experiment is described as follows: FLIM fluorescence lifetime upon binding to PARP1 in vitro. The method, then:
Fluorescence lifetime imaging was performed using a Zeiss 710 confocal NLO laser scanning system on an upright Zeiss Examiner stand with a 40×NA 1.1 water immersion LD CApochromat objective and a Becker & Hickl TCSPC system. Two-photon excitation was achieved using a Coherent Chameleon Vision II tunable laser (680-1040 nm) that provided 140-femtosecond pulses at a 80-Mhz repetition rate with an output power of 3 W at the peak of the tuning curve (800 nm). Laser scanning was controlled by Zeiss Zen software and set to a pixel dwell time of 1.58 microseconds and 0.9-sec frame rate at 910 nm wavelength excitation.
Enhanced detection of the scattered component of the emitted (fluorescence) photons was afforded by the use of a Becker & Hickl HPM-100-40 hybrid detector, which incorporates the Hamamatsu R10467 hybrid PMT tube Imaging was performed in the dark with blackout enclosure around the microscope to exclude external sources of light during the sensitive period of FLIM measurement. Emitted fluorescence was deflected to the non-descanned light path via a 760+ mirror and emission range was limited to 500-550 nm by a Chroma filter in front of the HPM-100-40 detector. […]
where r0 is the fundamental anisotropy of the dye-dependent on the orientation of the excitation and emission dipole moments. […] The fluorescent microspheres (100% and 30%) had the same fluorescence lifetime, 3.6±0.3 nsec. […]

Experiment [4] concerns the target T2, PARP1. The experiment is described as follows: MFAM fluorescence anisotropy of free vs PARP1-bound AZD2281-BODIPY FL in solution. The experiment is classed as binding. The conditions noted are these: PARP1 at 1.6x of 5 μM probe, imaging media with 2.5% FBS. Here is the method: AZD2281 labeled with BODIPY FL (AZD2281-BODIPY FL) was prepared as previously described (see Thurber, G. M. et al., Single-cell and subcellular pharmacokinetic imaging allows insight into drug action in vivo, Nat Commun, 4, 1504, (2013), for example). PARP1 (BioVision) was brought up in the manufactures recommended solution and added at 1.6× the concentration of AZD2281-BODIPY FL (5 μM) in imaging media containing 2.5% FBS. Free AZD2281-BODIPY FL (5 μM) (no PARP) in the same imaging media with 2.5% FBS and in DMSO solutions were also made. Images were taken of drops of solution between cover glass.
as §1

Experiment [5] has as its target T3, NeutrAvidin (Gallus gallus, UniProt P02701).
T3 construct: purchased Thermo Scientific
The experiment is described as follows: Biotin-BODIPY and NeutrAvidin binding by MFAM anisotropy. Particulars: 10x unlabeled biotin (100 μM). The method, then:
Biotin was conjugated to Me5-BODIPY (Biotin-BODIPY) and brought to 1 mM stock solution in DMSO. Biotin-BODIPY (10 μM) was mixed with varying concentrations of NeutrAvidin (Thermo Scientific) in PBS with 1% Triton X (Sigma). Each sample was imaged in triplicate as a drop between a microscope slide and cover glass. Measurements of each sample were also performed using single photon excitation in a plate reader. Measurements were also made in the presence of 100 μM free Biotin to competitively compete with the Biotin-BODIPY.

T1 sequence (P09874 2-1014): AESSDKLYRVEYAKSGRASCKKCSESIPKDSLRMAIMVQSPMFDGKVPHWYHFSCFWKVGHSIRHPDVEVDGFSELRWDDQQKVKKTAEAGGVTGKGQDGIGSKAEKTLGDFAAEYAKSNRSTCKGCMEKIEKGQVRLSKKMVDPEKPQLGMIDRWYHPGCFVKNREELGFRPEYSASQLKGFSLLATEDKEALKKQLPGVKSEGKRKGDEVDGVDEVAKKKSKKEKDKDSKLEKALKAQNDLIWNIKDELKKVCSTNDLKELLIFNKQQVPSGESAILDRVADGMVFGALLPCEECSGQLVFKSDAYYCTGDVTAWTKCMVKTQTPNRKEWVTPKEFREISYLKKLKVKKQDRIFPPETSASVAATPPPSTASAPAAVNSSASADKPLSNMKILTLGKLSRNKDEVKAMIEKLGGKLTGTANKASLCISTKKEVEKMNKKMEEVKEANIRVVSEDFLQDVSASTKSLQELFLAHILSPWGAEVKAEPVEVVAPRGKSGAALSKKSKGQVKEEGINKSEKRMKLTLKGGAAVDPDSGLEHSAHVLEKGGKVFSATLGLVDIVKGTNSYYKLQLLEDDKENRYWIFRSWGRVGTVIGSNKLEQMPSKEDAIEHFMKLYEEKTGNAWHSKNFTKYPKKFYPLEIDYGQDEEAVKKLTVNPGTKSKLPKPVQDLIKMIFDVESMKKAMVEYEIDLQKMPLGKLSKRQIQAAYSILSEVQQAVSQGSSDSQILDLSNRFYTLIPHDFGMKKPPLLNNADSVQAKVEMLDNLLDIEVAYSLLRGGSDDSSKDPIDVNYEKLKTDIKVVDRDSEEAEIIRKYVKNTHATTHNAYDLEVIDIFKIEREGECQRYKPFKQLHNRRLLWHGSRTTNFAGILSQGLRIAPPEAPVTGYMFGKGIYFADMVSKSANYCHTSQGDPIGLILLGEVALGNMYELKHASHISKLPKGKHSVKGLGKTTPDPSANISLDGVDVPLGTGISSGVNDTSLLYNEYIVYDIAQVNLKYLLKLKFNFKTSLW
T2 sequence (P09874 whole entry): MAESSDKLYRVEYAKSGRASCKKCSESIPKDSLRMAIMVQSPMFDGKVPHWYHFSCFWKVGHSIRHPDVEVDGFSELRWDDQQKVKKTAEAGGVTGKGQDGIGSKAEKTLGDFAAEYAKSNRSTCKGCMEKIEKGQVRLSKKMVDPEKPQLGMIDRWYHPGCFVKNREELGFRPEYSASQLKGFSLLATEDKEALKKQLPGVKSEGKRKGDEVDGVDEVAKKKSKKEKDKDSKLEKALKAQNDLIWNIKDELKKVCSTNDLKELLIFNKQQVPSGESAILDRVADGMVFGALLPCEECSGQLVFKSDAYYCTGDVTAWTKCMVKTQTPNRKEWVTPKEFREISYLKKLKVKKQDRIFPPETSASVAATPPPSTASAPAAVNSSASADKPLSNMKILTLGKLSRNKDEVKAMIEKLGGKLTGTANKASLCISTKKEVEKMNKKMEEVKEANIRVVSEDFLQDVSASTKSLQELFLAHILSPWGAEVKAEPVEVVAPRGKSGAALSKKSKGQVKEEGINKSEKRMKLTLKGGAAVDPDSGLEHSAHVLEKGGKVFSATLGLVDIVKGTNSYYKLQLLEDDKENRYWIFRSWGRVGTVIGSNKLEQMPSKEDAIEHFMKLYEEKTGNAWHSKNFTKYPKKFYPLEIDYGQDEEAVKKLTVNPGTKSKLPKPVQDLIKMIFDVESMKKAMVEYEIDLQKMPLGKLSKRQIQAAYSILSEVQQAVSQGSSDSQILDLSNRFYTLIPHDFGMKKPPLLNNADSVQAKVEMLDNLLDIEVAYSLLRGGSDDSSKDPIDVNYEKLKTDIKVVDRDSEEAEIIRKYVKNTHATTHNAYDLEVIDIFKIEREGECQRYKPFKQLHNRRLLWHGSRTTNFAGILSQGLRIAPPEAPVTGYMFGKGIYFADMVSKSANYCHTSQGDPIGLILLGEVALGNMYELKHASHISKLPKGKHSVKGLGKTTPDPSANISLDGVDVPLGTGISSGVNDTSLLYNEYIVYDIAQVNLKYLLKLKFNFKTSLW
T3 sequence (P02701 25-152): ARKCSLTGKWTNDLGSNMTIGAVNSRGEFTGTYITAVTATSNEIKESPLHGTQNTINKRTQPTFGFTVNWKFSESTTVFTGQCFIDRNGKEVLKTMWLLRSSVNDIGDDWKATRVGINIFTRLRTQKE

In the case of `Cc1cc(C)n2c1C=C1C=CC(CCC(=O)N3CCN(C(=O)c4cc(Cc5n[nH]c(=O)c6ccccc56)ccc4F)CC3)=[N+]1[B-]2(F)F` [AZD2281-BODIPY FL], the “nuclear anisotropy over time in vivo” value in experiment [1] (after intravenous infusion vs 34 minutes later) is recorded as “the nuclear anisotropy increased”. For the same compound, the “binding to PARP in the nucleus in vivo” value in experiment [1] (intravenous, implanted HT1080 H2B mApple tumor) is recorded as “occurred immediately upon drug infusion”. Besides, in experiment [2] (HT1080 cells incubated with probe), the “localisation of bound drug (high anisotropy)” value is listed as “bound drug was present in the nucleus”. The “bound drug after extended washing cycles” value in experiment [2] (HT1080 cells, after washing) was “the nuclear, bound drug remains”. In experiment [2] (HT1080 cells, loading and washing), the “target binding in the cytoplasm” value is “no target binding”. Further, the fluorescence lifetime in experiment [3] (bound to PARP1) came out at 3.3±0.3 nsec; in experiment [3] (unbound), 4.1±0.3 nsec. Moreover, the “anisotropy of target-bound over free or intracellular drug” value in experiment [4] is given as “significant increase in anisotropy”.
For `O=C(O)CCCC[C@@H]1SC[C@@H]2NC(=O)N[C@@H]21` [biotin], the “anisotropy increase of Biotin-BODIPY in presence of unlabeled competitor” value in experiment [5] is given as “suppressed”.
